Values of other authors as cited in paper PMC9500858 (International Journal of Molecular Sciences, 2022).
Where two headings read alike, the source gives them in different places.

Key:
[1] = 0.005 nmol/rat at 120 min and 0.02 nmol/rat at 30, 60 and 120 min; cited from earlier work
Text: (§1) Since hybrid compounds have gained attention due to their potent multifunctional behavior with a more favorable profile in terms of possible side effects, much work devoted to such compounds can be found. PK20 and [Ile^9]PK20, which are hybrid structures encompassing both opioid and neurotensin pharmacophores, although modified, were designed and synthesized to reduce pain.

[2] = system: CA1 region of the hippocampus; settings: combined administration with NMDA, cited from earlier work
Text: as §1

| Substance | induced analgesia compared to PK20 [1] | extent of damage to the CA1 region of the hippocampus ([2]; dose 25 ng/mL) | extent of damage to the CA1 region of the hippocampus ([2]; dose 50 ng/mL) | extent of damage to the CA1 region of the hippocampus ([2]; dose 100 ng/mL) |
| --- | --- | --- | --- | --- |
| HELM PEPTIDE1{[Cc1cc(O)cc(C)c1C[C@H](N)C(=O)[*:2]].[dK].F.F.K.K.P.F.I.L}$$$$V2.0 (N-terminus assumed; SMILES CC[C@H](C)[C@H](NC(=O)[C@H](Cc1ccccc1)NC(=O)[C@@H]1CCCN1C(=O)[C@H](CCCCN)NC(=O)[C@H](CCCCN)NC(=O)[C@H](Cc1ccccc1)NC(=O)[C@H](Cc1ccccc1)NC(=O)[C@@H](CCCCN)NC(=O)[C@@H](N)Cc1c(C)cc(O)cc1C)C(=O)N[C@@H](CC(C)C)C(=O)O) [[Ile^9]PK20, analogue of PK20 with Ile instead of Tle at position 9] | significantly lower | – | – | – |
| HELM PEPTIDE1{[Cc1cc(O)cc(C)c1C[C@H](N)C(=O)[*:2]].[dK].F.F.K.K.P.F.[CC(C)(C)[C@H](N[*:1])C(=O)[*:2]].L}$$$$V2.0 (N-terminus assumed; SMILES Cc1cc(O)cc(C)c1C[C@H](N)C(=O)N[C@H](CCCCN)C(=O)N[C@@H](Cc1ccccc1)C(=O)N[C@@H](Cc1ccccc1)C(=O)N[C@@H](CCCCN)C(=O)N[C@@H](CCCCN)C(=O)N1CCC[C@H]1C(=O)N[C@@H](Cc1ccccc1)C(=O)N[C@H](C(=O)N[C@@H](CC(C)C)C(=O)O)C(C)(C)C) [PK20, opioid–neurotensin hybrid peptide] | – | 1.47% ± 1.20 | 5.18% ± 2.84 | 6.82% ± 6.08 |
